This is an account of results in ChEMBL document CHEMBL1201862, “PubChem BioAssay data set” (2004).

Test systems include CAKI-1; CCRF-CEM; EKVX; HCT-15; HOP-62; HT-29; K562; KM12; LOX IMVI; NCI-H226; OVCAR-5; OVCAR-8; RXF 393; SF-268; SF-295; SN12C; UACC-257; UACC-62.
What all share (experiment): growth of human tumour cells (NCI), 48 h

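Test compounds were applied to cells in 96-well plates for 48 hours at 5 doses. At the GI50, growth is halved.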 Active and inactive are the calls of the source. Rule as the data show it: active = GI50 up to about 1.1 µM and inactive = higher.

On to `COc1ccc2c(CCNC(C)=O)c(C(C)=O)[nH]c2c1`, for which the GI50 in the assay on CAKI-1 is 70.5 µM (inactive); in the assay on CCRF-CEM, > 100 µM (inactive); with EKVX it was > 100 µM (inactive); in the assay on HCT-15 it was greater than 100 µM; in the assay on HOP-62, > 100 µM (inactive); with HT-29 it was > 100 µM (inactive). Moreover, the GI50 with K562 was > 100 µM (inactive); in the assay with KM12, > 100 µM (inactive); in the assay on LOX IMVI, > 100 µM (inactive); in the assay on NCI-H226 it was 71.4 µM (inactive); in the assay on OVCAR-5, > 100 µM (inactive); in the assay on OVCAR-8 it was > 100 µM (inactive). Moreover, the GI50 in the assay with RXF 393 is > 100 µM (inactive); in the assay on SF-268 it was 48.4 µM (inactive); with SF-295 it was > 100 µM (inactive); in the assay with SN12C it was > 100 µM (inactive); in the assay on UACC-257, > 100 µM (inactive); in the assay on UACC-62 it was > 100 µM (inactive).

With `COC(=O)NC(=O)c1cn(CCCOC(=O)CCCCCCCCC(=O)OCCCn2cc(C(=O)NC(=O)OC)c(=O)[nH]c2=O)c(=O)[nH]c1=O`, the GI50 is 28.8 µM (inactive) in the assay on CAKI-1; > 100 µM (inactive) with CCRF-CEM; 55.2 µM (inactive) in the assay with EKVX; greater than 100 µM with HCT-15; 23.1 µM (inactive) in the assay with HOP-62; > 100 µM (inactive) in the assay on HT-29. In addition, the GI50 in the assay with K562 is > 100 µM (inactive); with KM12 it was > 100 µM (inactive); with LOX IMVI it was > 100 µM (inactive); in the assay on NCI-H226, > 100 µM (inactive); in the assay with OVCAR-5, > 100 µM (inactive); in the assay with OVCAR-8 it was 23.9 µM (inactive). Besides, the GI50 with RXF 393 is 29.4 µM (inactive); with SF-268, 31.3 µM (inactive); in the assay on SF-295, 47.3 µM (inactive); in the assay on SN12C it was > 100 µM (inactive); in the assay on UACC-257, > 100 µM (inactive); with UACC-62 it was > 100 µM (inactive).

As for `CCc1cc2c(c3[nH]ccc13)[C@@H](C)C[C@H]2C`, the GI50 is 15.8 µM (inactive) in the assay on CAKI-1; 20.4 µM (inactive) with CCRF-CEM; 20.7 µM (inactive) with EKVX; 14.4 µM in the assay with HCT-15; 19.7 µM (inactive) in the assay with HT-29; 21.6 µM (inactive) with K562. For the same compound, the GI50 in the assay with KM12 is 19.1 µM (inactive); with LOX IMVI, 12.7 µM (inactive); with NCI-H226, 16.4 µM (inactive); in the assay on OVCAR-8 it was 19.7 µM (inactive); with RXF 393, 13.8 µM (inactive); in the assay with SF-295, 18.8 µM (inactive). Besides, the figures for the GI50 with SN12C, with UACC-257 and with UACC-62 were 15.6 µM (inactive), 19.9 µM (inactive) and 16.9 µM (inactive), respectively.

Consider `COC(=O)C1C(=O)O[C@@H](c2ccc(OC)cc2)C1C(=O)OC` (stereo not given in full), for which the GI50 with CAKI-1, with CCRF-CEM, in the assay on EKVX, in the assay on HOP-62, in the assay with HT-29 and in the assay with K562 was > 100 µM (inactive) throughout. For the same compound, the GI50 with KM12, in the assay with LOX IMVI, in the assay with NCI-H226, in the assay with OVCAR-5, in the assay with OVCAR-8 and with RXF 393 was > 100 µM (inactive) throughout. Also, the GI50 in the assay with SF-268, in the assay with SF-295, with SN12C, in the assay on UACC-257 and with UACC-62 was > 100 µM (inactive) in each case.

As to `COc1cc(O)c2c(c1)C(=O)C=C(Cl)C2=O`, the GI50 was > 100 µM (inactive) in the assay with CAKI-1; > 100 µM (inactive) with CCRF-CEM; > 100 µM (inactive) in the assay with EKVX; greater than 100 µM in the assay with HCT-15; > 100 µM (inactive) in the assay with HT-29; > 100 µM (inactive) with K562. Moreover, the GI50 with KM12 was > 100 µM (inactive); in the assay with LOX IMVI, > 100 µM (inactive); with NCI-H226 it was 28.2 µM (inactive); in the assay on OVCAR-5 it was > 100 µM (inactive); in the assay on OVCAR-8 it was 64.7 µM (inactive); with RXF 393, > 100 µM (inactive). The GI50 in the assay on SF-268, in the assay with SF-295, in the assay with UACC-257 and in the assay with UACC-62 was > 100 µM (inactive) each time.

As for `CCOC(=O)CCn1cnc(N)n1`, the GI50 with CAKI-1 was > 100 µM (inactive); in the assay on CCRF-CEM, > 100 µM (inactive); with EKVX it was > 100 µM (inactive); in the assay on HCT-15, greater than 100 µM; in the assay on HOP-62 it was > 100 µM (inactive); with HT-29 it was > 100 µM (inactive). Moreover, the GI50 in the assay with K562, with KM12, with LOX IMVI, in the assay with NCI-H226, in the assay with OVCAR-5 and with OVCAR-8 was > 100 µM (inactive) throughout. Further, the GI50 in the assay on RXF 393, in the assay on SF-295, with SN12C, with UACC-257 and in the assay with UACC-62 was > 100 µM (inactive) throughout.

Take `CSc1nc2[nH]c(=O)c(C)nc2c(=O)[nH]1`: the GI50 in the assay on CAKI-1 was > 100 µM (inactive); with CCRF-CEM, > 100 µM (inactive); in the assay with EKVX it was > 100 µM (inactive); in the assay with HCT-15, greater than 100 µM; in the assay with HOP-62, > 100 µM (inactive); with HT-29, > 100 µM (inactive). The GI50 in the assay with K562, with KM12, in the assay on LOX IMVI, in the assay with OVCAR-5, in the assay on OVCAR-8 and with RXF 393 was > 100 µM (inactive) in each case. Besides, the GI50 with SF-268, with SF-295, in the assay on SN12C, in the assay with UACC-257 and in the assay on UACC-62 was > 100 µM (inactive) throughout.

With `C/C(CCN(C)C)=N/O`, the GI50 with CAKI-1 is 1.02 µM (active); in the assay with CCRF-CEM it was 0.194 µM (active); with EKVX, 1.55 µM (inactive); with HCT-15, 11.7 µM; with HOP-62, 1.77 µM (inactive); in the assay with HT-29 it was 0.658 µM (active). Also, the GI50 was 0.292 µM (active) with K562; 12.5 µM (inactive) with KM12; 30 µM (inactive) with NCI-H226; 18.7 µM (inactive) in the assay on OVCAR-5; 0.826 µM (active) in the assay on OVCAR-8; 6.05 µM (inactive) with RXF 393. Also, the GI50 in the assay on SF-268 was 1.49 µM (inactive); in the assay with SF-295, 26.8 µM (inactive); in the assay with SN12C it was 14.3 µM (inactive); in the assay with UACC-257, 15.7 µM (inactive); in the assay on UACC-62, 1.15 µM (inactive).

Turning to `CC(=O)NNc1nc(C)c(C(=O)/C=C/c2ccc(Cl)cc2)s1`, the GI50 is > 100 µM (inactive) in the assay on CAKI-1; > 100 µM (inactive) with CCRF-CEM; 57.7 µM (inactive) in the assay on EKVX; > 100 µM (inactive) in the assay on HOP-62; > 100 µM (inactive) in the assay with HT-29; > 100 µM (inactive) with K562. Moreover, the GI50 in the assay with KM12, with LOX IMVI, in the assay on OVCAR-5, with OVCAR-8, in the assay on RXF 393 and in the assay with SF-268 was > 100 µM (inactive) each time. The GI50 with SF-295, in the assay on UACC-257 and in the assay with UACC-62 was > 100 µM (inactive) throughout.
